Assay results from PMC10409285 (PLOS Pathogens, 2023).
“And” between values parts separate entries of the source, which are not always exact repeats. Identical values can stand only once. Like-named read-outs stand apart in the source and are kept apart here. No end group written: not given here.

Columns and labels:
DR2a (DRB5*01:01) = DR2a (DRB5*01:01) (Homo sapiens, UniProt P01903+Q30154); assay: fluorescence polarization competition binding assay, DR2a
DR2b (DRB1*15:01) = molecular target: T1, DR2b (DRB1*15:01) (Homo sapiens, UniProt P01903+P01911); assay: fluorescence polarization competition binding assay, DR2b; conditions: mean of two independent experiments
T1 construct: Soluble DRB1*15:01 and DRB5*01:01 with a covalently linked CLIP peptides; covalently linked CLIP peptide (3C-protease-cleavable linker) (cleaved yes); purchased NIH Tetramer Core Facility / Emory University (a gift of Drs. John Altman and Richard Willis, not bought)

A549 cells = conditions: cells treated with IFN-γ and trametinib (IFN-γ 100 ng/mL; trametinib 50 ng/mL, 50 nM)
[1] = molecular target: Soluble DP4 (HLA-DPA1*01:03/DPB1*04:01) (human); assay: fluorescence polarisation
[2] = molecular target: Soluble DP4 (HLA-DPA1*01:03/DPB1*04:01) (human)
[3] = molecular target: Soluble DRB1*15:01 (human) (UniProt P01903); assay: fluorescence polarisation
[4] = molecular target: Soluble DRB5*01:01 (human) (UniProt P01903); assay: fluorescence polarisation
[5] = molecular target: Soluble DRB1*15:01 (human) (UniProt P01903)
[6] = fluorescence polarization competition, […], mean of two independent experiments, read-out: Mean IC50, DR2a (DRB5*01:01)

CC(C)C[C@H](NC(=O)[C@H](C)NC(=O)[C@H](C)NC(=O)[C@@H](N)CC(C)C)C(=O)N[C@@H](CC(N)=O)C(=O)N[C@H](C(=O)N[C@@H](Cc1ccccc1)C(=O)N[C@H](C(=O)N[C@@H](CO)C(=O)N[C@@H](Cc1c[nH]cn1)C(=O)N[C@H](C(=O)N[C@@H](CC(C)C)C(=O)N[C@H](C(=O)N[C@@H](CCCCN)C(=O)N[C@@H](Cc1ccc(O)cc1)C(=O)O)[C@@H](C)O)[C@@H](C)O)C(C)C)C(C)C [Peptide P11.229E]
IC50 (DR2a (DRB5*01:01)): 2.1 µM
IC50 (DR2b (DRB1*15:01)): 0.21 µM

CC[C@H](C)[C@H](NC(=O)[C@H](CC(C)C)NC(=O)[C@H](CCC(N)=O)NC(=O)[C@H](CCC(N)=O)NC(=O)[C@@H](NC(=O)[C@@H](NC(=O)[C@H](Cc1ccc(O)cc1)NC(=O)[C@@H](NC(=O)[C@H](CCC(N)=O)NC(=O)[C@H](CC(C)C)NC(=O)[C@H](CO)NC(=O)[C@H](CCC(N)=O)NC(=O)[C@@H](N)CC(C)C)[C@@H](C)O)C(C)C)[C@@H](C)O)C(=O)N[C@@H](CCCNC(=N)N)C(=O)N[C@@H](C)C(=O)O [Peptide P11.CoV2]
IC50 (DR2a (DRB5*01:01); [6]): 2.18 µM
IC50 (DR2b (DRB1*15:01)): 0.45 µM

CC[C@H](C)[C@H](NC(=O)[C@H](CC(=O)O)NC(=O)[C@H](CO)NC(=O)[C@H](CC(C)C)NC(=O)[C@H](CCC(N)=O)NC(=O)[C@H](CCC(N)=O)NC(=O)[C@H](CO)NC(=O)[C@@H](NC(=O)[C@H](Cc1ccc(O)cc1)NC(=O)[C@H](C)NC(=O)[C@H](CC(N)=O)NC(=O)[C@H](CC(C)C)NC(=O)[C@H](C)NC(=O)[C@@H](NC(=O)[C@@H](N)CC(C)C)[C@@H](C)O)C(C)C)C(=O)O [Peptide P11.HKU1]
IC50 (DR2a (DRB5*01:01)): 21.3 µM
IC50 (DR2b (DRB1*15:01)): 0.22 µM

CC(C)C[C@H](NC(=O)[C@H](C)NC(=O)[C@H](C)NC(=O)[C@@H](N)CC(C)C)C(=O)N[C@@H](CC(N)=O)C(=O)N[C@@H](C)C(=O)N[C@@H](Cc1ccccc1)C(=O)N[C@H](C(=O)N[C@@H](CO)C(=O)N[C@@H](CCC(N)=O)C(=O)N[C@H](C(=O)N[C@@H](CC(C)C)C(=O)N[C@@H](CC(N)=O)C(=O)N[C@@H](CCCCN)C(=O)N[C@@H](Cc1ccc(O)cc1)C(=O)O)C(C)C)C(C)C [Peptide P11.NL63]
IC50 (DR2a (DRB5*01:01)): 2.1 µM
IC50 (DR2b (DRB1*15:01)): 0.56 µM

CC(C)C[C@H](NC(=O)[C@H](C)NC(=O)[C@@H](NC(=O)[C@@H](N)CC(C)C)[C@@H](C)O)C(=O)N[C@@H](CC(N)=O)C(=O)N[C@@H](C)C(=O)N[C@@H](Cc1ccc(O)cc1)C(=O)N[C@H](C(=O)N[C@@H](CO)C(=O)N[C@@H](CCC(N)=O)C(=O)N[C@@H](CCC(N)=O)C(=O)N[C@@H](CC(C)C)C(=O)N[C@@H](CO)C(=O)N[C@@H](CC(=O)O)C(=O)N[C@@H](CO)C(=O)O)C(C)C [Peptide P11]
IC50 (DR2a (DRB5*01:01)): 63.5 µM
IC50 (DR2b (DRB1*15:01)): 0.14 µM

CC[C@H](C)[C@H](NC(=O)CNC(=O)[C@H](CC(N)=O)NC(=O)[C@@H](NC(=O)[C@H](Cc1ccccc1)NC(=O)[C@@H](N)CC(=O)O)[C@@H](C)CC)C(=O)N[C@@H](Cc1ccccc1)C(=O)N[C@@H](C)C(=O)N[C@@H](CCCCN)C(=O)N[C@H](C(=O)N[C@@H](CCCCN)C(=O)N[C@@H](CC(N)=O)C(=O)N[C@H](C(=O)N[C@@H](CCCCN)C(=O)N[C@H](C(=O)N[C@H](C(=O)N[C@@H](CCCCN)C(=O)O)[C@@H](C)CC)C(C)C)[C@@H](C)O)C(C)C [Peptide P12]
IC50 (DR2a (DRB5*01:01)): < 1 µM and 0.14 µM
IC50 (DR2b (DRB1*15:01)): 17.1 µM

CC[C@H](C)[C@H](NC(=O)[C@@H](NC(=O)[C@H](CC(N)=O)NC(=O)[C@H](CO)NC(=O)[C@H](CCCCN)NC(=O)[C@H](CCC(=O)O)NC(=O)[C@@H](NC(=O)[C@H](CO)NC(=O)[C@H](C)NC(=O)[C@H](Cc1ccccc1)NC(=O)[C@H](Cc1ccc(O)cc1)NC(=O)[C@@H](NC(=O)CNC(=O)[C@H](CC(=O)O)NC(=O)[C@H](CC(N)=O)NC(=O)[C@@H](N)Cc1ccccc1)C(C)C)[C@@H](C)O)[C@@H](C)CC)C(=O)O [S#18 (CoV2)]
IC50 (DR2a (DRB5*01:01); [6]): 41.3 µM
IC50 (DR2b (DRB1*15:01)): 777 µM

CC[C@H](C)[C@H](NC(=O)[C@@H](NC(=O)CNC(=O)[C@H](CC(N)=O)NC(=O)[C@H](CCC(=O)O)NC(=O)[C@H](CC(N)=O)NC(=O)[C@H](Cc1ccc(O)cc1)NC(=O)[C@H](CCCCN)NC(=O)[C@H](CC(C)C)NC(=O)[C@H](CC(C)C)NC(=O)[C@H](Cc1ccccc1)NC(=O)[C@@H](NC(=O)[C@H](CCCNC(=N)N)NC(=O)[C@@H]1CCCN1C(=O)[C@@H](N)CCC(N)=O)[C@@H](C)O)[C@@H](C)O)C(=O)N[C@H](C(=O)O)[C@@H](C)O [S#55 (CoV2)]
IC50 (DR2a (DRB5*01:01); [6]): 66.2 µM
IC50 (DR2b (DRB1*15:01)): 3.7 µM

CC[C@H](C)[C@H](NC(=O)[C@@H](NC(=O)CNC(=O)[C@H](CC(N)=O)NC(=O)[C@H](CCC(=O)O)NC(=O)[C@H](CC(N)=O)NC(=O)[C@H](Cc1ccc(O)cc1)NC(=O)[C@H](CCCCN)NC(=O)[C@H](CC(C)C)NC(=O)[C@@H](N)CC(C)C)[C@@H](C)O)C(=O)N[C@H](C(=O)N[C@@H](CC(=O)O)C(=O)N[C@@H](C)C(=O)N[C@H](C(=O)N[C@@H](CC(=O)O)C(=O)N[C@@H](CS)C(=O)O)C(C)C)[C@@H](C)O [S#56 (CoV2)]
IC50 (DR2a (DRB5*01:01); [6]): 41.1 µM
IC50 (DR2b (DRB1*15:01)): 39.8 µM

CC(=O)Nc1cccc(-n2c(=O)n(C3CC3)c(=O)c3c(Nc4ccc(I)cc4F)n(C)c(=O)c(C)c32)c1 [trametinib]
MHC-II expression in A549 cells (A549 cells): small increase

EGQQIIFYEGVNFTP [Peptide P8]
IC50 (DR2a (DRB5*01:01)): 5.68 µM
IC50 (DR2b (DRB1*15:01)): 0.23 µM

LFYTQVYKNMAVYRS [Peptide P9]
IC50 (DR2a (DRB5*01:01)): < 1 µM and 0.4 µM
IC50 (DR2b (DRB1*15:01)): 0.22 µM

P1, OC43 hemagglutinin esterase 259–273 (peptide)
IC50 [1]: < 1 µM

P2, OC43 nucleoprotein 321–336 (peptide)
IC50 [2]: > 10 µM

P3, OC43 spike 97–111 (peptide)
IC50 [2]: < 10 µM

P4, OC43 spike 903–917 (peptide)
IC50 [2]: < 10 µM

P5, OC43 spike 760–773 (peptide)
IC50 [2]: < 1 µM

P6, OC43 spike 1140–1155 (peptide)
IC50 [2]: > 10 µM

P7, OC43 spike 1147–1164 (peptide)
IC50 [2]: < 10 µM

P8, OC43 hemagglutinin esterase 93–107 (peptide)
IC50 [3]: < 1 µM

P9, OC43 hemagglutinin esterase 128–142 (peptide)
IC50 [3]: < 1 µM
IC50 [4]: < 1 µM

P10, OC43 nucleoprotein 54–68 (peptide)
IC50 [5]: < 1 µM

P11, OC43 spike 1085–1099 (peptide)
IC50 [5]: < 1 µM

P12, OC43 spike 98–114 (peptide)
IC50 [4]: < 1 µM
IC50 [5]: > 1 µM

P14, OC43 envelope 62–78 (peptide)
IC50 [2]: < 10 µM

QGLPNNTASWFTALTQH [N#7 (CoV2)]
IC50 (DR2a (DRB5*01:01); [6]): 204 µM
IC50 (DR2b (DRB1*15:01)): 507 µM
